Data: patent publication US20120316249A1, “LYCOPENE FOR THE TREATMENT FOR METABOLIC DYSFUNCTION” (Cammedica limited, priority 2006, published 2012)
“And” between values parts separate entries of the source, which are not always exact repeats. Equal values may be shown once.

Assay: Pilot clinical trial of Lipitor-Liprimar: serum lipids in human volunteers
Type: in vivo
Parameters: TG / CH-HDL / CH, mean / TG, mean / CH-LDL, mean / CH-HDL, mean: unit not given here
Method: Ten volunteers, 5 males and 5 females, aged 45-55 years old, were selected for this pilot clinical trial. 40 mg of Lipitor-Liprimar was given orally, with food, to each patient daily for two months.
Serum samples were collected from the blood of the patients before the treatment and after two months of treatment.

[1] = Lipitor 40 mg daily, two months
[2] = individual patients, Lipitor 40 mg daily, orally, after 2 months of treatment
[3] = mean of 10 patients, Lipitor 40 mg daily, orally, after 2 months of treatment

CC(C)c1c(C(=O)Nc2ccccc2)c(-c2ccccc2)c(-c2ccc(F)cc2)n1CC[C@@H](O)C[C@@H](O)CC(=O)O [Lipitor, Atorvastatin]
total cholesterol (CH) reduction [1]: 17% | triglyceride (TG) reduction [1]: 22% | CH-LDL reduction (Lipitor-Liprimar 40 mg daily, two months): 35% | CH [2]: 200 mg/dL (2×) and 140 mg/dL and 176 mg/dL and 188 mg/dL and 197 mg/dL and 170 mg/dL and 184 mg/dL and 209 mg/dL and 154 mg/dL | CH-HDL [2]: 38 and 42 (3×) and 47 (2×) and 39 and 43 (2×) and 49 | CH-LDL [2]: 120 mg/dL (2×) and 145 mg/dL and 110 mg/dL (2×) and 146 mg/dL and 140 mg/dL and 100 mg/dL and 130 mg/dL (2×) | TG [2]: 120 and 136 and 99 and 98 and 87 and 90 and 133 and 105 and 172 and 96 | CH, mean [3]: 182 | CH-HDL, mean [3]: 43 | CH-LDL, mean [3]: 100 | TG, mean [3]: 113
